Where two headings read alike, the source gives them in different places.
What was measured:
[1] = system: purified Rhodococcus sp. FZ4 nitrile hydratase; assay: Influence of metal ions on the activity of purified nitrile hydratase; assay type: biochemical; conditions: no addition = 100
Procedure: (§1) A solution comprising nitrile hydratase solution (0.695 μmol/min; 0.025 ml), potassium phosphate buffer (0.1 M; pH 7.0; 0.475 ml), distilled water (0.150 ml) and different potential inhibitors (0.100 ml) was incubated at 20° C. for 5 min. This was followed by the addition of 3-cyanopyridine (1.0 M; 0.250 ml). The concentration of the inhibitors in the reaction mixture was 1.0 mM. The reaction mixture was incubated at 20° C. for 10 min. The reaction was stopped by adding MeOH. The amount of nicotinamide produced was determined by means of HPLC according to Example 1.
The influence of metal ions on the activity of purified nitrile hydratase was carried out according to Example 24, but with the addition of metal ions instead of potential inhibitors. […]

[2] = system: Rhodococcus sp. FZ4; assay type: cell-based
Procedure: (§2) The preculture medium of Table 2 was inoculated with strain Rhodococcus sp. FZ4 (DSM 13597), followed by incubation with shaking at 28° C. for 1 to 2 days. The preculture was transferred into the culture medium of Table 5, which contained different inducers, and cultured with shaking at 28° C. for 3 days. Nitrile hydratase activity was determined according to Example 1. Rhodococcus sp.

[3] = system: Rhodococcus sp. FZ4 nitrile hydratase; assay type: cell-based
Procedure: (§3) Nitrile hydratase activity was determined by incubating a reaction mixture comprising 3-cyanopyridine (1.0 M; 1.0 ml), potassium phosphate buffer (0.1 M, pH 7.0; 0.5 ml) and cell suspension (0.5 ml) with stirring at 20° C. for 5 min. The reaction was stopped by adding HCI (5 M; 0.1 ml). After filtration (0.2 μm filter) of the reaction mixture, the amount of nicotinamide produced was determined by means of HPLC (Waters Spherisorb 5 μ ODS2 (4.6×150 mm); KH2P04/H3P04 (10 mM; pH 2.8)/acetonitrile=9:1 (v/v); 1 ml/min; 230 nm). The total activity is expressed as μmol of nicotinamide produced/ (min×ml) and the specific activity is expressed as μmol of nicotinamide produced/(min×ml×OD610 nm).
as §2

[4] = system: Rhodococcus rhodochrous J1 nitrile hydratase; assay: Substrate specificity of nitrile hydratase activity (comparison strain); assay type: cell-based
[5] = system: Rhodococcus sp. FZ4 nitrile hydratase; assay: Substrate specificity of nitrile hydratase activity, resting cells; assay type: cell-based
Procedure: as §3
Rhodococcus sp. FZ4 nitrile hydratase activity with respect to different substrates was determined according to Example 1, except that the appropriate substrate was used instead of 3-cyanopyridine and that the HPLC conditions were modified according to the substrate used.

[6] = system: purified Rhodococcus sp. FZ4 nitrile hydratase; assay: Substrate specificity of purified nitrile hydratase; assay type: biochemical
Procedure: A reaction mixture comprising nitrile hydratase solution (0.695 μmol/min; 0.025 ml), different substrates (0.500 ml) and potassium phosphate buffer (0.1 M; pH 7.0; 0.475 ml) was incubated at 20° C. for 5 to 10 min. The concentrations of the substrates used were in the range from 0.015 to 0.250 M. The reaction was stopped by adding MeOH. The amount of amide produced was determined by means of HPLC.

[7] = system: purified Rhodococcus sp. FZ4 nitrile hydratase; assay type: biochemical
Procedure: as §1

[8] = culture medium with inducer 0.2% (w/v), 28° C., 3 days
[9] = culture medium with inducer 0.2% (w/v), 28° C., 3 days, substrate 3-cyanopyridine

Compound | Growth [2, 8] [OD610 nm] | Specific activity [3, 9] | Total activity [3, 9] [µmol/min/mL] | Relative activity [7] [%] | further results
[Cl][Mn][Cl] [MnCl2] | – | – | – | – | Relative activity ([1]; metal ions 1.0 mM): 123%
NC(=O)c1ccccc1 [Benzamide] | 3.88 | 2.12 μmol/(min × ml × OD610 nm) | 8.24 | – | –
C=CC#N [Acrylonitrile] | 3.27 | 1.81 μmol/(min × ml × OD610 nm) | – | – | Relative activity [4]: 478%; Relative activity [5]: 498%; Relative activity [6]: 774%
N#Cc1ccccn1 [2-Cyanopyridine] | – | – | – | – | Relative activity [4]: 45%; Relative activity [5]: 39.3%; Relative activity [6]: 36.7%
NCCS [Cysteamine] | – | – | – | 99.1 | –
CCC(N)=O [Propionamide] | 5.17 | 28.7 μmol/(min × ml × OD610 nm) | 149 | – | –
c1ccc(-c2ccccn2)nc1 [2,2′-Bipyridyl] | – | – | – | 97.8 | –
O=S(=O)(F)Cc1ccccc1 [Phenylmethanesulfonyl fluoride] | – | – | – | 110 | –
CCCC#N [Butyronitrile] | 5.26 | 58.4 μmol/(min × ml × OD610 nm) | 307 | – | Relative activity [4]: 26%; Relative activity [5]: 466%; Relative activity [6]: 578%
N#Cc1ccncc1 [4-Cyanopyridine] | – | – | – | – | Relative activity [4]: 70%; Relative activity [5]: 98.4%; Relative activity [6]: 92.8%
C/C=C/C(N)=O [Crotonamide] | 9.32 | 59.9 μmol/(min × ml × OD610 nm) | 558 | – | –
N[C@@H]1CONC1=O [D-Cycloserine] | – | – | – | 86.3 | –
[Cl][Hg][Cl] [HgCl2] | – | – | – | – | Relative activity ([1]; metal ions 0.1 mM (footnote b)): 0%
N#Cc1cccc(Cl)c1 [m-Chlorobenzonitrile] | – | – | – | – | Relative activity [4]: 43%; Relative activity [5]: 39.3%; Relative activity [6]: 66.5%
CCN1C(=O)C=CC1=O [N-Ethylmaleinimide] | – | – | – | 95.3 | –
O[C@H](CS)[C@H](O)CS (racemic) [Dithiothreitol] | – | – | – | 103 | –
CC=CC#N [Crotononitrile] | 8.24 | 49.4 μmol/(min × ml × OD610 nm) | 407 | – | Relative activity [4]: 78%; Relative activity [5]: 92.1%; Relative activity [6]: 114%
O=C(O)CI [Iodoacetate] | – | – | – | 96.7 | –
CC(C)CC#N [Isovaleronitrile] | 3.22 | 23.2 μmol/(min × ml × OD610 nm) | 74.7 | – | –
[Cl][Fe]([Cl])[Cl] [FeCl3] | – | – | – | – | Relative activity ([1]; metal ions 1.0 mM): 105%
NC(=O)c1ccncc1 [Isonicotinamide] | 5.03 | 2.17 μmol/(min × ml × OD610 nm) | 10.9 | – | –
O=C(O)c1cc(SSc2ccc([N+](=O)[O-])c(C(=O)O)c2)ccc1[N+](=O)[O-] [5,5′-Dithiobis(2-nitrobenzoic acid)] | – | – | – | 93.4 | –
N#Cc1ccccc1 [Benzonitrile] | – | – | – | – | Relative activity [4]: 27%; Growth [2]: 5.62 OD610 nm; Specific activity [3]: 7.17 μmol/(min × ml × OD610 nm); Total activity [3]: 40.3 µmol/min/mL; Relative activity [5]: 41.7%; Relative activity [6]: 75.6%
Oc1cccc2cccnc12 [8-Hydroxyquinoline] | – | – | – | 97.8 | –
O=C(O)c1cc[c]([Hg][Cl])cc1 [p-Chloromercuribenzoic acid] | – | – | – | 187 | –
OCCS [2-Mercaptoethanol] | – | – | – | 76.3 | –
O=[N+]([O-])[O-].[Ag+] [AgNO3] | – | – | – | – | Relative activity ([1]; metal ions 1.0 mM): 0%

Compound | Growth [2, 8] [OD610 nm] | Specific activity [3, 9] | Total activity [3, 9] [µmol/min/mL] | Relative activity [7] [%] | further results
CCCC(N)=O [Butyramide] | 4.7 | 73.2 μmol/(min × ml × OD610 nm) | 344 | – | –
N#Cc1ccc(Cl)cc1 [p-Chlorobenzonitrile] | – | – | – | – | Relative activity [4]: 13%; Relative activity [5]: 8.25%; Relative activity [6]: 8.31%
NNc1ccccc1 [Phenylhydrazine] | – | – | – | 84.6 | –
NO [Hydroxylamine] | – | – | – | 1.34 | –
CCCCC#N [Valeronitrile] | 3.70 | 32.4 μmol/(min × ml × OD610 nm) | 120 | – | –
N#Cc1ccccc1Cl [o-Chlorobenzonitrile] | – | – | – | – | Relative activity [4]: 2.8%; Relative activity [5]: 0%; Relative activity [6]: 0%
CCCCC(N)=O [Valeramide] | 5.61 | 57.5 μmol/(min × ml × OD610 nm) | 322 | – | –
O=C(O)CN(CCN(CC(=O)O)CC(=O)O)CC(=O)O [EDTA, Ethylenediaminetetraacetic acid] | – | – | – | 100 | –
N#CCC(N)=O [Cyanoacetamide] | 4.75 | 6.50 μmol/(min × ml × OD610 nm) | 30.9 | – | –
c1cnc2c(c1)ccc1cccnc12 [1,10-Phenanthroline] | – | – | – | 106 | –
C=C(C)C(N)=O [Methacrylamide] | 4.55 | 125 μmol/(min × ml × OD610 nm) | 569 | – | Relative activity [6]: 1.39%
CC(C)C#N [Isobutyronitrile] | 5.24 | 52.1 μmol/(min × ml × OD610 nm) | 273 | – | –
CC=CCC#N [3-Pentenenitrile] | 4.62 | 13.4 μmol/(min × ml × OD610 nm) | 62 | – | –
CC(C)CCC#N [Isocaprononitrile] | 4.72 | 28.5 μmol/(min × ml × OD610 nm) | 134 | – | –
O=S(=O)([O-])[O-].[Cu+2] [CuS04] | – | – | – | – | Relative activity ([1]; metal ions 1.0 mM): 177%
[Cl][Ni][Cl] [NiCl2] | – | – | – | – | Relative activity ([1]; metal ions 1.0 mM): 123%
O=C1CCCCCN1 [ε-Caprolactam] | 4.44 | 9.08 μmol/(min × ml × OD610 nm) | 40.3 | – | –
CCC#N [Propionitrile] | 4.72 | 20.3 μmol/(min × ml × OD610 nm) | 95.8 | – | Relative activity [4]: 435%; Relative activity [5]: 412%; Relative activity [6]: 693%
CC(C)C(N)=O [Isobutyramide] | 3.55 | 109 μmol/(min × ml × OD610 nm) | 387 | – | –
C=CC(N)=O [Acrylamide] | – | – | – | – | Growth [2]: 5.17 OD610 nm; Specific activity [3]: 11.7 μmol/(min × ml × OD610 nm); Total activity [3]: 60.5 µmol/min/mL
[Ca+2].[Cl-].[Cl-] [CaCl2] | – | – | – | – | Relative activity ([1]; metal ions 1.0 mM): 113%
NC(N)=O [Urea] | 6.16 | 0.918 μmol/(min × ml × OD610 nm) | 5.66 | 106 | –
C=C(C)C#N [Methacrylonitrile] | 4.61 | 71.5 μmol/(min × ml × OD610 nm) | 330 | – | Relative activity [4]: 87%; Relative activity [5]: 3.64%
O=S(=O)(O)c1cc(O)c(O)c(S(=O)(=O)O)c1 [Tiron] | – | – | – | 114 | –
CCCCCC#N [Caprononitrile] | 4.54 | 23.0 μmol/(min × ml × OD610 nm) | 104 | – | –
O=S(=O)([O-])[O-].[Zn+2] [ZnSO4] | – | – | – | – | Relative activity ([1]; metal ions 1.0 mM): 121%

— patent publication US7838271B2, “Microbiological method for producing amides” (priority 2001, dated 2010)
